The values below come from publication PMC9693223 (Molecules, 2022).

In one assay the test system is T. cruzi trypomastigotes. Description: Effect on cell derived trypomastigotes (percent motile parasites). The settings on record: Trypanosoma cruzi, 24 h incubation, percent of motile parasites. The class given is cell-based. Here is the method: (§1) Trypomastigotes were obtained by infecting CHO-K1 cells. CHO-K1 cells were cultivated in RPMI-1640 medium supplemented with 10% heat-inactivated fetal calf serum (FCS), 0.15% (w/v) […], 100 µg mL^−1 penicillin and 130 µg mL^−1 streptomycin and incubated at 37 °C in a humidified atmosphere containing 5% CO2. CHO-K1 cells were initially incubated with metacyclic trypomastigotes obtained by in vitro differentiation of epimastigotes as previously described (multiplicity of infection: 50 parasites per cell) for 4 h. After washing out the non-internalized parasites, the cells were incubated overnight in RPMI medium supplemented with 10% FCS at 37 °C and then maintained at 33 °C in a humidified atmosphere containing 5% CO2 as previously reported. Infected cells were maintained at 33 °C in the presence of 10% FCS. Infected cell-derived trypomastigotes started to burst into the culture medium at the 5th day post-infection. Trypomastigotes collected at day 5 or 6 post infection were used for the viability assays.
To measure the effect of compounds, cell derived trypomastigotes were collected from the extracellular medium at the fifth or sixth day after infection and counted in a Neubauer chamber. […] After incubation the trypanocidal effect was assessed by counting the percent of motile parasites in a Neubauer chamber. […]

Assay [1] has as its system L. mexicana Cas9^ΔNT1+TcrNT2 promastigotes. Description: Alamar blue drug sensitivity assay, L. mexicana Cas9^ΔNT1+TcrNT2 promastigotes. In kind it is cell-based, Leishmania mexicana. The settings on record: Cas9^ΔNT1+TcrNT2 in comparison to L. mexicana Cas9^ΔNT1. An excerpt: We used L. mexicana promastigotes of the Cas9 strain developed by Beneke at al. to generate the ΔNT1 strain, and from there the Cas9^ΔNT1+TcrNT2 (see below); The original Cas9 strain was generously donated by Prof. Eva Gluenz (University of Bern, Switzerland). All strains in standard HOMEM (GIBCO, Life Technologies, Paisley, UK) supplemented with 10% heat-inactivated fetal bovine serum (FBS; PAA Laboratories, Linz, Austria) and 1% of a penicillin–streptomycin solution (10,000 U mL^−1 each; Life Technologies) at 25 °C, as described.
The Alamar blue assay (resazurin sodium salt) was used to determine the drug sensitivity of the L. mexicana promastigotes in vitro. The assay is based on the reduction of resazurin sodium salt (blue and non-fluorescent) to resorufin (pink color and fluorescent) by live cells. HOMEM medium with 10% FBS (100 μL) was added to all wells of a white 96-well plate apart from the first well. 200 μL of a known concentration of test compounds was diluted in HOMEM medium and placed in the first well. Compounds were tested in one plate and every compound was diluted over two rows (23 concentrations), leaving the last well of every dilution as a negative control having 100 μL HOMEM medium. Next, 100 μL of L. mexicana culture at a density of 2 × 10^6 cells mL^−1 was added into every well in the plate and incubated for 72 h at a temperature of 25 °C after which resazurin sodium salt (Sigma) (20 μL of a solution of 12.5 mg in 100 mL PBS) was added and the plate was incubated under the same conditions for a further 48 h. Fluorescence was measured in a FLUOstar OPTIMA plate reader (BMG Labtech, Germany), at a wavelength of 544 nm for excitation and 620 nm for emission. The EC50 values and fluorescence data were determined and plotted by the GraphPad Prism 8 Software using an equation for a sigmoid curve with variable slope. Pentamidine was used as positive control and every experiment was performed 3–4 times independently.

For assay [2], the system named is T. cruzi epimastigotes (CL Brener strain). The experiment in a line: In vitro inhibition of proliferation of T. cruzi epimastigotes. In kind it is cell-based, Trypanosoma cruzi. The settings on record: Trypanosoma cruzi; cell densities at the 5th day of proliferation, four independent experiments. Here is the method:
as §1
The density of exponentially proliferating epimastigotes for each assay was adjusted to 2.0 × 10^6 parasites mL^−1, transferred into 96-well plates (200 μL/well) and incubated with different concentrations of the compounds 5-F-2′-deoxyuridine, 5-F-uracil, 5-F-uridine or benznidazole. A combination of 60 μM rotenone and 0.5 μM antimycin (RA) was used as a positive control for proliferation inhibition (positive control), as previously described. […] The epimastigote proliferation was measured as previously reported, by reading the optical density (OD) at 620 nm every 24 h for 9 days (which collects readings through the exponential and stationary phases). […] The half-maximal inhibitory concentrations (IC50) were determined during the exponential growth phase (fifth day) by adjusting a sigmoidal dose-response function to experimentally obtained data using GraphPad Prism 8. The compounds were assessed in quadruplicate in each experiment, and the results correspond to four independent experiments.

A further assay relates to Leishmania major. The arrangement: method as in PMID 28453984. The settings on record: ref [36]; read-out: EC50 against Leishmania major; cited from earlier work.

In the case of `O=c1[nH]c(=O)n([C@H]2C[C@H](O)[C@@H](CO)O2)cc1F` [5-F-2′-dUrd, 5-F-2′-deoxyuridine], in the assay with T. cruzi trypomastigotes, the inhibition at 31 µM is around 30%. Further, in assay [1], the “RF vs. ΔNT1 (resistance factor)” value is listed as 14.8. The IC50 in assay [2] stood at 16.8 ± 0.01 µM. The EC50 in the assay with Leishmania major was 1400 nM.
